Assay results from patent publication US7943653B2 (priority 2008, dated 2011).
Read-outs that look alike come from different tables or passages of the source.

Legend:
[1] = target: T1, human CB1 receptor (Homo sapiens, UniProt P21554); assay: Binding assay, cannabinoid CB1 receptor, [3H]-CP-55,940 displacement
T1 construct: expressed in transfected cells; host or cells: SK-N-MC cells, stably transfected with pcDNA3 CB-1 (human); semi-purified membrane pellet
Procedure: (§1) The human CB1 and CB2 receptors were stably expressed in SK-N-MC cells transfected with pcDNA3 CB-1 (human) or pcDNA3 CB-2 (human). The cells were grown in T-180 cell culture flasks under standard cell culture conditions at 37° C. in a 5% CO2 atmosphere. The cells were harvested by trysinization and homogenized in a homogenization buffer (10 mM Tris, 0.2 mM MgCl2, 5 mM KCl, with protease inhibitors aprotinin, leupeptin, pepstatin A and bacitracin) and centrifuged (2000 g). The supernatant was then centrifuged in 2M sucrose (31,300 g) to produce a semi-purified membrane pellet. The pellet was resuspended in homogenization and stored at −80° C.
(§2) On the day of the assay, the pellet was thawed on ice and diluted in assay buffer (50 mM Tris-HCl, 5 mM MgCl2, 2.5 mM EDTA, 0.5 mg/mL fatty acid free bovine serum albumin, pH 7.5). The diluted membrane pellet was added with buffer, either a test compound or vehicle standard and the radioligand [H]^3+-CP-55,940 (0.2 nM) to the wells of a 96-well polypropylene plate. Non-specific binding was measured in wells containing WIN 55,212 (10 uM). The plate was covered and incubated for 90 minutes at 30° C. The contents were then aspirated onto a Packard Unifilter GF/C filter bottom plate prewet with 0.5% polyethyleneimine. The wells of the polypropylene plate were rinsed and aspirated seven times with a 0.9% saline-0.5% Tween 20 solution. The Unifilter plate was dried, scintillation cocktail was added to each well and the counts representing binding were quantitated in a TopCount scintillation counter.
(§3) For compounds tested, an IC50 binding value was obtained from percent inhibition studies in which various test concentrations were used. The binding value was calculated by linear regression.
(§4) For compounds without an IC50 binding value, the percent inhibition (%) was obtained at a test concentration of ^a1.0 μM or ^b0.2 μM.

[2] = target: T2, human CB2 receptor (Homo sapiens, UniProt P34972); assay: Binding assay, cannabinoid CB2 receptor, [3H]-CP-55,940 displacement; settings: for inhibition at 1 µM / inhibition at 0.2 µM: read-out: Cannabinoid CB2 Receptor Binding, percent inhibition; for IC50: membranes of SK-N-MC cells expressing human CB2, calculated by linear regression from percent inhibition at various concentrations
T2 construct: expressed in transfected cells; host or cells: SK-N-MC cells, stably transfected with pcDNA3 CB-2 (human); semi-purified membrane pellet
T2 sequence (P34972 whole entry): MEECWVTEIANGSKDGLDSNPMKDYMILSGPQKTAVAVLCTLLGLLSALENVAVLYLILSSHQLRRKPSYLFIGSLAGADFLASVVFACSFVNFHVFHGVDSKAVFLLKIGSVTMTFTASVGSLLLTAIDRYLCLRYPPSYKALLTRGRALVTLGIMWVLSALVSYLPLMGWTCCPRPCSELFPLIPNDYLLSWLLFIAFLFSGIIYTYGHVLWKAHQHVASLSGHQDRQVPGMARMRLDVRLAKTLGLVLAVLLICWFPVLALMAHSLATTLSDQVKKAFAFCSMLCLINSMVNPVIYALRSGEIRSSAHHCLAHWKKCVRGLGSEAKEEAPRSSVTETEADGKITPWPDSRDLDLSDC
Procedure: as §1, §2, §3, §4

[3] = membranes of SK-N-MC cells expressing human CB1, calculated by linear regression from percent inhibition at various concentrations, read-out: Cannabinoid CB1 Receptor Binding, IC50 binding value
[4] = read-out: Cannabinoid CB1 Receptor Binding, percent inhibition

T1 sequence (P21554 whole entry): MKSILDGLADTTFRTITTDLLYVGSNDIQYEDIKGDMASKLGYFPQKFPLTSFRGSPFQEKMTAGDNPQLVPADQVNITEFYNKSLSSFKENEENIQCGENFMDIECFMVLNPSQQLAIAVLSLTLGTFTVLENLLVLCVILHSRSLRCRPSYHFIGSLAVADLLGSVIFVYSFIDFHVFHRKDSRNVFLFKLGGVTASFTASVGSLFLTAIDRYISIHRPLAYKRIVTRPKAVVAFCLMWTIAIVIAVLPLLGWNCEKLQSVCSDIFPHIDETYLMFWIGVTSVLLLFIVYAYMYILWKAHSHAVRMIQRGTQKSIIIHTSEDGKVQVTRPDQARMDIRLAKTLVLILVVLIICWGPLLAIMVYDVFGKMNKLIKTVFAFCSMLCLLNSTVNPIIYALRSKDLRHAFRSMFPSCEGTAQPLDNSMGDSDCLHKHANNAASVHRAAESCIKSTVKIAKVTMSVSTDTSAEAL

Row | IC50 [1, 3] | Compound | inhibition at 1 µM [2] | IC50 [1] | further results
1 | 300 nM | CC(=Cc1ccc(Cl)cc1)c1c(C)c(C(=O)N[C@H](C)c2ccccc2)nn1-c1ccc(F)cc1F [Cpd 23, 5-[2-(4-chloro-phenyl)-1-methyl-vinyl]-1-(2,4-difluoro-phenyl)-4-methyl-1H-pyrazole-3-carboxylic acid [(1R)-1-phenyl-ethyl]-amide] | – | – | –
2 | 280 nM | CC(=Cc1ccc(Cl)cc1)c1c(C)c(C(=O)N[C@H](C)C2CCCCC2)nn1-c1ccc(F)cc1F [Cpd 24, 5-[2-(4-chloro-phenyl)-1-methyl-vinyl]-1-(2,4-difluoro-phenyl)-4-methyl-1H-pyrazole-3-carboxylic acid [(1R)-1-cyclohexyl-ethyl]-amide] | – | – | –
3 | 130 nM | CC(=Cc1ccc(Cl)cc1)c1c(C)c(C(=O)N[C@@H](C)C2CCCCC2)nn1-c1ccc(F)cc1F [Cpd 21, 5-[2-(4-chloro-phenyl)-1-methyl-vinyl]-1-(2,4-difluoro-phenyl)-4-methyl-1H-pyrazole-3-carboxylic acid [(1S)-1-cyclohexyl-ethyl]-amide] | – | – | –
4 | 370 nM | CC(=Cc1cccc(Cl)c1)c1c(C)c(C(=O)N[C@H](C)c2ccccc2)nn1-c1ccc(Cl)cc1Cl [Cpd 19, 5-[2-(3-chloro-phenyl)-1-methyl-vinyl]-1-(2,4-dichloro-phenyl)-4-methyl-1H-pyrazole-3-carboxylic acid [(1R)-1-phenyl-ethyl]-amide] | – | – | –
5 | – | CC(=Cc1ccc(Cl)cc1)c1c(C)c(C(=O)N[C@H](C)c2ccccc2)nn1-c1ccc(Cl)cc1Cl [Cpd 11, 5-[2-(4-chloro-phenyl)-1-methyl-vinyl]-1-(2,4-dichloro-phenyl)-4-methyl-1H-pyrazole-3-carboxylic acid [(1R)-1-phenyl-ethyl]-amide] | 51% | 340 nM | –
6 | – | CC(=Cc1ccc(Cl)cc1)c1c(C)c(C(=O)N[C@@H]2C(C)(C)[C@@H]3CC[C@]2(C)C3)nn1-c1ccc(Cl)cc1Cl [Cpd 3, 5-[2-(4-chloro-phenyl)-1-methyl-vinyl]-1-(2,4-dichloro-phenyl)-4-methyl-1H-pyrazole-3-carboxylic acid [(1R,2S,4R)-1,3,3-trimethyl-bicyclo[2.2.1]hept-2-yl]-amide] | 31% | 50 nM | –
7 | – | CC(=Cc1ccc(Cl)cc1)c1c(C)c(C(=O)N[C@H](C)C2CCCCC2)nn1-c1ccc(Cl)cc1Cl [Cpd 8, 5-[2-(4-chloro-phenyl)-1-methyl-vinyl]-1-(2,4-dichloro-phenyl)-4-methyl-1H-pyrazole-3-carboxylic acid [(1R)-1-cyclohexyl-ethyl]-amide] | 39% | 310 nM | –
8 | 250 nM | CC(=Cc1cccc(Cl)c1)c1c(C)c(C(=O)NN2CCCCC2)nn1-c1ccc(Cl)cc1Cl [Cpd 12, 5-[2-(3-chloro-phenyl)-1-methyl-vinyl]-1-(2,4-dichloro-phenyl)-4-methyl-1H-pyrazole-3-carboxylic acid piperidin-1-ylamide] | – | – | –
9 | – | CC(=Cc1ccc(Cl)cc1)c1c(C)c(C(=O)NN2CCCCC2)nn1-c1ccc(Cl)cc1Cl [Cpd 4, 5-[2-(4-chloro-phenyl)-1-methyl-vinyl]-1-(2,4-dichloro-phenyl)-4-methyl-1H-pyrazole-3-carboxylic acid piperidin-1-ylamide] | – | 90 nM | IC50 [2]: 1700 nM
10 | – | CC[C@H](C)NC(=O)c1nn(-c2ccc(Cl)cc2Cl)c(C(C)=Cc2ccc(Cl)cc2)c1C [Cpd 29, 5-[2-(4-chloro-phenyl)-1-methyl-vinyl]-1-(2,4-dichloro-phenyl)-4-methyl-1H-pyrazole-3-carboxylic acid [(S)-sec-butyl]-amide] | – | – | inhibition at 0.2 µM [1, 4]: 52%; inhibition at 0.2 µM [2]: 9%
11 | – | CC(=Cc1cccc(Cl)c1)c1c(C)c(C(=O)NN2CCOCC2)nn1-c1ccc(Cl)cc1Cl [Cpd 13, 5-[2-(3-chloro-phenyl)-1-methyl-vinyl]-1-(2,4-dichloro-phenyl)-4-methyl-1H-pyrazole-3-carboxylic acid morpholin-4-ylamide] | – | – | inhibition at 1 µM [1, 4]: 53%
12 | – | CC(=Cc1cccc(Cl)c1)c1c(C)c(C(=O)N[C@H](C)C2CCCCC2)nn1-c1ccc(Cl)cc1Cl [Cpd 18, 5-[2-(3-chloro-phenyl)-1-methyl-vinyl]-1-(2,4-dichloro-phenyl)-4-methyl-1H-pyrazole-3-carboxylic acid [(1R)-1-cyclohexyl-ethyl]-amide] | – | 90 nM | –
13 | 250 nM | CC(=Cc1cccc(Cl)c1)c1c(C)c(C(=O)N[C@@H](C)c2ccccc2)nn1-c1ccc(Cl)cc1Cl [Cpd 17, 5-[2-(3-chloro-phenyl)-1-methyl-vinyl]-1-(2,4-dichloro-phenyl)-4-methyl-1H-pyrazole-3-carboxylic acid [(1S)-1-phenyl-ethyl]-amide] | – | – | –
14 | – | CC(=Cc1cccc(Cl)c1)c1c(C)c(C(=O)N[C@@H](C)C2CCCCC2)nn1-c1ccc(Cl)cc1Cl [Cpd 16, 5-[2-(3-chloro-phenyl)-1-methyl-vinyl]-1-(2,4-dichloro-phenyl)-4-methyl-1H-pyrazole-3-carboxylic acid [(1S)-1-cyclohexyl-ethyl]-amide] | – | 330 nM | –
15 | 360 nM | CC(=Cc1ccc(Cl)cc1)c1c(C)c(C(=O)NN2CCOCC2)nn1-c1ccc(Cl)cc1Cl [Cpd 5, 5-[2-(4-chloro-phenyl)-1-methyl-vinyl]-1-(2,4-dichloro-phenyl)-4-methyl-1H-pyrazole-3-carboxylic acid morpholin-4-ylamide] | – | – | IC50 [2]: 2000 nM
16 | – | CNC(=O)c1nn(-c2ccc(Cl)cc2Cl)c(C(C)=Cc2ccc(Cl)cc2)c1C [Cpd 27, 5-[2-(4-chloro-phenyl)-1-methyl-vinyl]-1-(2,4-dichloro-phenyl)-4-methyl-1H-pyrazole-3-carboxylic acid methylamide] | – | – | inhibition at 0.2 µM [1, 4]: 11%; inhibition at 0.2 µM [2]: 18%
17 | – | CC(=Cc1ccc(Cl)cc1)c1c(C)c(C(=O)N[C@@H](C)C2CCCCC2)nn1-c1ccc(Cl)cc1Cl [Cpd 1, 5-[2-(4-chloro-phenyl)-1-methyl-vinyl]-1-(2,4-dichloro-phenyl)-4-methyl-1H-pyrazole-3-carboxylic acid [(1S)-1-cyclohexyl-ethyl]-amide] | 42% | 20 nM | –
18 | – | CC(=Cc1ccc(Cl)cc1)c1c(C)c(C(=O)N[C@@H](C)c2ccccc2)nn1-c1ccc(Cl)cc1Cl [Cpd 2, 5-[2-(4-chloro-phenyl)-1-methyl-vinyl]-1-(2,4-dichloro-phenyl)-4-methyl-1H-pyrazole-3-carboxylic acid [(1S)-1-phenyl-ethyl]-amide] | 32% | 20 nM | –
19 | – | CC[C@@H](C)NC(=O)c1nn(-c2ccc(Cl)cc2Cl)c(C(C)=Cc2ccc(Cl)cc2)c1C [Cpd 28, 5-[2-(4-chloro-phenyl)-1-methyl-vinyl]-1-(2,4-dichloro-phenyl)-4-methyl-1H-pyrazole-3-carboxylic acid [(R)-sec-butyl]-amide] | – | 70 nM | inhibition at 0.2 µM [2]: 21%

Row | Compound | IC50 [1, 3] | inhibition at 1 µM [2] | IC50 [1] | further results
20 | CC(=Cc1ccc(Cl)cc1)c1c(C)c(C(=O)Nc2ccccc2)nn1-c1ccc(Cl)cc1Cl [Cpd 10, 5-[2-(4-chloro-phenyl)-1-methyl-vinyl]-1-(2,4-dichloro-phenyl)-4-methyl-1H-pyrazole-3-carboxylic acid phenylamide] | 600 nM | 46% | – | –
21 | CC(=Cc1ccc(Cl)cc1)c1c(C)c(C(=O)NCC2CCCCC2)nn1-c1ccc(Cl)cc1Cl [Cpd 9, 5-[2-(4-chloro-phenyl)-1-methyl-vinyl]-1-(2,4-dichloro-phenyl)-4-methyl-1H-pyrazole-3-carboxylic acid cyclohexylmethyl-amide] | 370 nM | 49% | – | –
22 | CC(=Cc1ccc(Cl)cc1)c1c(C)c(C(=O)NC2CCCCC2C)nn1-c1ccc(Cl)cc1Cl (stereo not shown) [Cpd 7, 5-[2-(4-chloro-phenyl)-1-methyl-vinyl]-1-(2,4-dichloro-phenyl)-4-methyl-1H-pyrazole-3-carboxylic acid (2-methyl-cyclohexyl)-amide] | 110 nM | 55% | – | –
23 | CC(=Cc1ccc(Cl)cc1)c1c(C)c(C(=O)NC2CCCCC2)nn1-c1ccc(Cl)cc1Cl [Cpd 6, 5-[2-(4-chloro-phenyl)-1-methyl-vinyl]-1-(2,4-dichloro-phenyl)-4-methyl-1H-pyrazole-3-carboxylic acid cyclohexylamide] | 130 nM | 40% | – | –
